This data set can be described thus: TIMS collision cross section in N2 (TIMS CCS N2); higher = larger gas-phase ion size. The note with it: drift gas: N2 (99.4% N2, 0.6% O2), calibration: Stow et al. 2017 values for Agilent ESI-L Low Concentration Tune Mix, ionization: negative ESI. The procedure: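 Authentic plant natural product standards (10-50 ppm in 80% methanol) were analysed by UHPLC (BEH C18, 60 °C) coupled to a Bruker timsTOF Pro in negative ESI with N2 drift gas. TIMS collision cross sections were computed from mobility peak apices after calibration with Agilent Tune Mix using Stow et al. reference values. Values are the average of triplicate runs on different days, reported per annotated ion species (deprotonated ion, adducts, dimer, oxidized ion).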

± gives the uncertainty stated by the source.

For `COc1ccc(-c2cc(=O)c3c(O)c(OC)c(O)c(OC)c3o2)cc1OC` [Hymenoxin], the “TIMS collision cross section in N2” value came out at 207.1 ± 0.28 Å² (ion species: [M-H+Na+HCO2H]-) and 190.48 ± 0.09 Å² (ion species: [M-H]-).

With `COc1ccc(-c2oc3c(CC=C(C)C)c(O[C@@H]4O[C@H](CO)[C@@H](O)[C@H](O)[C@H]4O)cc(O)c3c(=O)c2O[C@@H]2O[C@@H](C)[C@H](O)[C@@H](O)[C@H]2O)cc1` [Icariin], the “TIMS collision cross section in N2” value (ion species: [M-H+HCO2H]-) amounted to 256.3 ± 1.1 Å².

As for `CC(C)=CCC(=O)C1(O)C(O)=C(C(=O)CC(C)C)C(=O)C1CC=C(C)C` (stereo unspecified) [Isohumulone], the “TIMS collision cross section in N2” value (ion species: [M-H]-) was 187.14 ± 0.21 Å².

Turning to `C[C@@H]1O[C@@H](OC[C@H]2O[C@@H](Oc3cc(O)c4c(=O)cc(-c5ccc(O)cc5)oc4c3)[C@H](O)[C@@H](O)[C@@H]2O)[C@H](O)[C@H](O)[C@H]1O` [Isorhoifolin], the “TIMS collision cross section in N2” value runs as follows: (ion species: [M-H+Na+HCO2H]-) 237.1 ± 0.28 Å²; (ion species: [M-H]-) 231.11 ± 0.1 Å².

Turning to `COc1ccc([C@@H]2CC(=O)c3c(O)cc(O[C@@H]4O[C@H](CO)[C@@H](O)[C@H](O)[C@H]4O)cc3O2)cc1` [Isosakuranin], the “TIMS collision cross section in N2” value worked out at 213.68 ± 0.13 Å² (ion species: [M-H+HCO2H]-) and 217.58 ± 0.11 Å² (ion species: [M-H]-).

Turning to `COc1ccc(-c2oc3cc(O)cc(O)c3c(=O)c2O)cc1` [Kaempferide], under “ion species: [M-H]-”, the “TIMS collision cross section in N2” value was 167.04 ± 0.26 Å².

Take `O=c1c(O)c(-c2ccc(O)cc2)oc2cc(O)cc(O)c12` [Kaempferol]: the “TIMS collision cross section in N2” value is, setting by setting: (ion species: [2M-H]-) 234.8 ± 0.14 Å²; (ion species: [M-H]-) 161.08 ± 0.12 Å².

As to `O=C1C[C@@H](c2ccc(O)cc2)Oc2cc(O)ccc21` [Liquiritigenin], the “TIMS collision cross section in N2” value is, setting by setting: (ion species: [2M-H]-) 202.54 ± 0.082 Å²; (ion species: [M-H]-) 159.28 ± 0.075 Å².

`CC(C)=CCC1=C(O)C(C(=O)CC(C)C)=C(O)C(CC=C(C)C)(CC=C(C)C)C1=O` [Lupulone]: the “TIMS collision cross section in N2” value (ion species: [M-H]-) was 201.76 ± 0.7 Å².

Consider `O=c1cc(-c2ccc(O)c(O[C@@H]3OC(CO)[C@@H](O)[C@@H](O)C3O)c2)oc2cc(O[C@@H]3OC(CO)[C@@H](O)[C@@H](O)C3O)cc(O)c12` (stereo partly specified) [Luteolin-7,3'-di-O-glucoside], for which the “TIMS collision cross section in N2” value (ion species: [M-H]-) is on record as 236.98 ± 0.087 Å².

Turning to `O=c1cc(-c2ccc(O)c(O)c2)oc2cc(O)cc(O)c12` [Luteolin], the “TIMS collision cross section in N2” value is, setting by setting: (ion species: [2M-H]-) 234.87 ± 0.19 Å²; (ion species: [M-H]-) 160.69 ± 0.18 Å².

On to `C[C@H]1[C@H](C)CC[C@]2(C(=O)O)CC[C@]3(C)C(=CC[C@@H]4[C@@]5(C)C[C@@H](O)[C@H](O)[C@@](C)(CO)[C@@H]5[C@H](O)C[C@]43C)[C@H]12` [Madecassic acid], for which the “TIMS collision cross section in N2” value (ion species: [M-H]-) amounted to 223.91 ± 0.25 Å².

For the molecule `CCCCCCCCCCCCCC(=O)O` [Myristic acid], the “TIMS collision cross section in N2” value (ion species: [M-H]-) was found to be 162.69 ± 0.1 Å².

On to `O=C1C[C@@H](c2ccc(O)cc2)Oc2cc(O)cc(O)c21` [Naringenin], for which the “TIMS collision cross section in N2” value (ion species: [M-H]-) is 163.01 ± 0.16 Å².

In the case of `C[C@@H]1O[C@@H](O[C@H]2[C@H](Oc3cc(O)c4c(c3)O[C@H](c3ccc(O)cc3)CC4=O)O[C@H](CO)[C@@H](O)[C@@H]2O)[C@H](O)[C@H](O)[C@H]1O` [Naringin], the “TIMS collision cross section in N2” value is reported as 220.79 ± 0.26 Å² (ion species: [M-H+Na+HCO2H]-) and 215.92 ± 0.17 Å² (ion species: [M-H]-).

In the case of `COc1ccc([C@@H]2CC(=O)c3c(O)cc(O[C@@H]4O[C@H](CO)[C@@H](O)[C@H](O)[C@H]4O[C@@H]4O[C@@H](C)[C@H](O)[C@@H](O)[C@H]4O)cc3O2)cc1O` [Neohesperidin], the “TIMS collision cross section in N2” value (ion species: [M-H]-) stood at 226.82 ± 0.1 Å².

Consider `COc1ccc(-c2coc3cc(O[C@@H]4O[C@H](CO)[C@@H](O)[C@H](O)[C@H]4O)ccc3c2=O)cc1` [Ononin (Formononetin 7-O-glucoside)], for which the “TIMS collision cross section in N2” value (ion species: [M-H+HCO2H]-) was 223.35 ± 0.14 Å².

For `CCCCCCCCCCCCCCCC(=O)O` [Palmitic acid], the “TIMS collision cross section in N2” value (ion species: [M-H]-) came out at 170.37 ± 0.16 Å².

For the molecule `CCCCCCCCCCCCCCC(=O)O` [Pentadecanoic acid], the “TIMS collision cross section in N2” value (ion species: [M-H]-) was 166.43 ± 0.15 Å².

Take `COc1ccc(-c2cc(=O)c3ccc(O)cc3o2)cc1` [Pratol]: for the setting “ion species: [2M-H]-”, the “TIMS collision cross section in N2” value was determined as 234 ± 0.056 Å².

`COc1cc(O)c2c(=O)c(-c3ccc(O)cc3)coc2c1` [Prunetin]: the “TIMS collision cross section in N2” value (ion species: [2M-H]-) is 264.09 ± 0.09 Å² and the “TIMS collision cross section in N2” value (ion species: [M-H]-) amounted to 167.78 ± 0.0071 Å².

Consider `C[C@H]1[C@H](C)CC[C@]2(C(=O)O)CC[C@]3(C)C(=CC[C@@H]4[C@@]5(C)C[C@@H](O)[C@@H](O)C(C)(C)[C@@H]5CC[C@]43C)[C@H]12` [Pygenic acid A], for which the “TIMS collision cross section in N2” value (ion species: [M-H]-) stood at 220.9 ± 0.38 Å².

As for `C[C@H]1[C@H](C)CC[C@]2(C(=O)O)CC[C@]3(C)C(=CC[C@@H]4[C@@]5(C)C[C@@H](O)[C@@H](O)[C@](C)(CO)[C@@H]5CC[C@]43C)[C@H]12` [Pygenic acid B], the “TIMS collision cross section in N2” value (ion species: [M-H]-) is given as 225.46 ± 0.32 Å².

For `C[C@@H]1O[C@@H](Oc2c(-c3ccc(O)c(O)c3)oc3cc(O)cc(O)c3c2=O)[C@H](O)[C@H](O)[C@H]1O` [Quercitrin], the “TIMS collision cross section in N2” value runs as follows: (ion species: [M-H+Na+HCO2H]-) 205.52 ± 0.42 Å²; (ion species: [M-H]-) 195.84 ± 0.038 Å².

Turning to `Oc1ccc(/C=C/c2cc(O)cc(O)c2)cc1` [Resveratrol], under “ion species: [M-H]-”, the “TIMS collision cross section in N2” value is listed as 157.41 ± 0.0058 Å².

As to `C[C@@H]1O[C@@H](O[C@H]2[C@H](Oc3cc(O)c4c(=O)cc(-c5ccc(O)cc5)oc4c3)O[C@H](CO)[C@@H](O)[C@@H]2O)[C@H](O)[C@H](O)[C@H]1O` [Rhoifolin], the “TIMS collision cross section in N2” value is, setting by setting: (ion species: [M-H+Na+HCO2H]-) 229.74 ± 2.3 Å²; (ion species: [M-H]-) 225.59 ± 0.085 Å².

Take `C[C@@H]1O[C@@H](OC[C@H]2O[C@@H](Oc3c(-c4ccc(O)c(O)c4)oc4cc(O)cc(O)c4c3=O)[C@H](O)[C@@H](O)[C@@H]2O)[C@H](O)[C@H](O)[C@H]1O` [Rutin]: the “TIMS collision cross section in N2” value (ion species: [M-3H]-) came to 219.55 ± 0.41 Å² and the “TIMS collision cross section in N2” value (ion species: [M-H]-) is on record as 231.06 ± 0.2 Å².

Take `O=C(N[C@@H](CSCc1ccccc1)C(=O)O)OCc1ccccc1` [S-Benzyl-N-carbobenzyloxy-L-cysteine]: the “TIMS collision cross section in N2” value (ion species: [M-H]-) came out at 264.84 ± 0.64 Å².

Turning to `O=C(O)[C@H]1O[C@@H](Oc2cc3oc(-c4ccc(O)cc4)cc(=O)c3c(O)c2O)[C@H](O)[C@@H](O)[C@@H]1O` [Scutellarein-7-glucuronide], the “TIMS collision cross section in N2” value (ion species: [M-3H]-) came out at 202.76 ± 0.54 Å².

As to `O=c1cc(-c2ccc(O)cc2)oc2cc(O)c(O)c(O)c12` [Scutellarein], the “TIMS collision cross section in N2” value reads like this: (ion species: [M-3H]-) 156.37 ± 0.57 Å²; (ion species: [M-H]-) 159.52 ± 0.35 Å².

Take `COc1cc(C=CC(=O)O)cc(OC)c1O` [Sinapic acid]: the “TIMS collision cross section in N2” value (ion species: [M-H]-) was determined as 148.27 ± 0.07 Å².

Take `COc1cc2oc(-c3ccc(O)cc3)cc(=O)c2c(O)c1O` [Sorbifolin]: the “TIMS collision cross section in N2” value (ion species: [M-H]-) came out at 166.28 ± 0.23 Å².

For `CCCCCCCCCCCCCCCCCC(=O)O` [Stearic acid], the “TIMS collision cross section in N2” value (ion species: [M-H]-) worked out at 178.54 ± 0.015 Å².

For `O=C(/C=C/c1ccc(O)cc1)OC[C@H]1O[C@@H](Oc2c(-c3ccc(O)cc3)oc3cc(O)cc(O)c3c2=O)[C@H](O)[C@@H](O)[C@@H]1O` [Tiliroside], the “TIMS collision cross section in N2” value (ion species: [M-H]-) was 217.09 ± 0.061 Å².

Turning to `C[C@H]1[C@H](C)CC[C@]2(C(=O)O)CC[C@]3(C)C(=CC[C@@H]4[C@@]5(C)CC[C@H](O)C(C)(C)[C@@H]5CC[C@]43C)[C@H]12` [Ursolic acid], the “TIMS collision cross section in N2” value (ion species: [M-H+Na+HCO2H]-) came to 229.46 ± 0.98 Å² and the “TIMS collision cross section in N2” value (ion species: [M-H]-) turned out to be 218.03 ± 0.74 Å².

In the case of `O=c1cc(-c2ccc(O)cc2)oc2cc(O[C@@H]3O[C@H](CO)[C@@H](O)[C@H](O)[C@H]3O[C@@H]3OC[C@](O)(CO)[C@H]3O)cc(O)c12` [apiin], the “TIMS collision cross section in N2” value (ion species: [M-H]-) was determined as 223.96 ± 0.26 Å².

Regarding `CC1(C)CC[C@]2(C(=O)O)CC[C@]3(C)C(=CC[C@@H]4[C@@]5(C)C[C@H](O)[C@H](O)[C@@](C)(CO)[C@@H]5CC[C@]43C)[C@@H]2C1` [bayogenin], the “TIMS collision cross section in N2” value is, setting by setting: (ion species: [M-H+HCO2H]-) 234.73 ± 0.27 Å²; (ion species: [M-H]-) 225.09 ± 0.24 Å².

As for `C[C@@H]1O[C@@H](O[C@H]2[C@H](Oc3cc(O)c4c(c3)O[C@H](c3ccc(O)c(O)c3)CC4=O)O[C@H](CO)[C@@H](O)[C@@H]2O)[C@H](O)[C@H](O)[C@H]1O` [eriodictyol-7-neohesperidoside], the “TIMS collision cross section in N2” value (ion species: [M-3H]-) is 222.52 ± 0.16 Å², the “TIMS collision cross section in N2” value (ion species: [M-H+Na+HCO2H]-) was 234.56 ± 0.42 Å² and the “TIMS collision cross section in N2” value (ion species: [M-H]-) worked out at 222.66 ± 0.095 Å².

As to `O=c1c(O)c(-c2ccccc2)oc2cc(O)cc(O)c12` [galangin], the “TIMS collision cross section in N2” value is, setting by setting: (ion species: [2M-H]-) 238 ± 0.12 Å²; (ion species: [M-H]-) 156.93 ± 0.11 Å².

Regarding `CC(C)=CCc1c(O)ccc2c1O[C@H](c1ccc(O)cc1)CC2=O` [isobavachin], the “TIMS collision cross section in N2” value is given as 237.66 ± 0.46 Å² (ion species: [2M-H]-) and 185.17 ± 0.47 Å² (ion species: [M-H]-).

In the case of `O=c1c(O[C@@H]2O[C@H](CO)[C@@H](O)[C@H](O)[C@H]2O)c(-c2ccc(O)cc2)oc2cc(O)cc(O)c12` [kaempferol-3-O-glucoside], the “TIMS collision cross section in N2” value reads like this: (ion species: [2M-H]-) 279.93 ± 1.2 Å²; (ion species: [M-H+Na+HCO2H]-) 222.09 ± 0.65 Å²; (ion species: [M-H]-) 200.44 ± 0.33 Å².

The values above are taken from the supplement of paper PMC7023306.
